# From patent US20240255506A1, “PAIRED-CELL PROFILING SYSTEMS FOR HIGH-THROUGHPUT SCREENING SYNCYTIUM FORMATION” (priority 2023, published 2024)
# Assays:
# [1] = tested on: SARS-COV-2 D614G; details: hamster, in vivo; for infectious SARS-COV-2 titer in lung tissues (plaque assay) / virus RdRp gene expression level in lung tissues: ip
# [2] = tested on: SARS-COV-2 spike-induced syncytium formation in A549-ACE2 cells; assay type: cell-based; details: A549-ACE2-GFP1-10 receiver cells, HEK293T-GFP-11 sender cells expressing WT D614G spike; drugs added 3 h after seeding, imaged after 24 h; vs DMSO-treated control
# [3] = tested on: SARS-COV-2 D614G virus; assay type: cell-based; details: both cell lysate and supernatant samples after virus infection; Vero E6, Vero E6-TMPRSS2 and A549-ACE2 cells
# [4] = tested on: SARS-COV-2 D614G live virus; assay type: cell-based; details: Vero E6 and Vero E6-TMPRSS2 GFP1-10/GFP11 cells; CPZ 16 μM, promethazine 12.5 μM, fluvoxamine 12.5 μM, 24 h
# [5] = tested on: SARS-COV-2 spike-induced syncytium formation in Vero E6 cells; assay type: cell-based; details: Vero E6-GFP1-10 receiver cells, HEK293T-GFP-11 sender cells expressing WT D614G spike; drugs added 3 h after seeding, imaged after 24 h; vs DMSO-treated control
SMILES,area of positivity of the SARS-COV-2 nucleocapsid protein in lung tissues [1],body weight of the hamsters [1],syncytium-like multinucleated cells within SARS-COV-2 nucleocapsid-positively stained lung tissues [1],infectious SARS-COV-2 titer in lung tissues (plaque assay) [1],virus RdRp gene expression level in lung tissues [1],syncytium formation [2],expression levels of SARS-COV-2 RNA-dependent RNA polymerase (RdRp) [3],syncytium formation in SARS-COV-2 D614G-infected cells [4],syncytium formation [5]
CN(C)CCCN1c2ccccc2Sc2ccc(Cl)cc21 [chlorpromazine],reduced,no significant change,less syncytium-like multinucleated cells were detected,reduced,reduced,greatly impeded syncytium formation,greatly reduced,inhibited syncytium formation,greatly impeded syncytium formation
COCCCC/C(=N\OCCN)c1ccc(C(F)(F)F)cc1 [fluvoxamine],reduced,no significant change,less syncytium-like multinucleated cells were detected,reduced,reduced,greatly impeded syncytium formation,greatly reduced,inhibited syncytium formation,greatly impeded syncytium formation
CC(CN1c2ccccc2Sc2ccccc21)N(C)C (stereo not shown) [promethazine],,,,,,greatly impeded syncytium formation,greatly reduced,inhibited syncytium formation,greatly impeded syncytium formation
